Patent US11932595B2, “VDR-silent vitamin D derivative as inhibitors of SREBP and pharmaceutical use thereof” (KYOTO UNIVERSITY, priority 2020, dated 2024)

Columns and labels:
[1] = system: SREBP-responsive genes; conditions: low μM dose, cultured cells; cited from earlier work
[2] = system: SREBP-responsive genes; test: Short-term in vivo model (fasting/refeeding): hepatic mRNA of SREBP-responsive genes by real-time PCR; parameters: species or system mice
Description: (§1) To quickly and simultaneously examine their SREBP inhibitory activity and VDR-derived calcemic activity in vivo, a short-term in vivo screening system of mice was established. With reference to the previous report (Horton, J. D. et al. Proc. Natl. Acad. Sci. U.S.A. 1998, 95, 5987-5992.), mice were fasted for 48 hours then refed a special diet (low fat, high carbohydrate diet, lacking in vitamin D) for 48 hours before sacrifice.
C57BL/6 and oh/oh mice were purchased from CLEA Japan and Charles River Japan, Inc., respectively. Animal experiments were carried out at the University of Tokyo and Charles River Laboratories. Low fat, high carbohydrate diet, lacking vitamin D was custom made by Research Diets, Inc. Compounds disclosed herein and 25(OH)D3 were dissolved in ethanol/Tween 20 (9:1) to obtain stock solution and then diluted 10-fold with PBS immediately before administration to mice.
10 mg/kg compounds or vehicle control were administered intraperitoneally once every 24 hours during the fasting and refeeding.
Relative mRNA levels of SREBP-responsive genes were determined by real-time PCR in the livers obtained from the mice with free access to a normal diet or fasted and refed a special diet (means SEM, n=3 per group), *p<0.05.
Expression levels of SREBP-responsive genes were determined by real-time PCR in the livers obtained from the mice treated with indicated compounds (10 mg/kg) according to the protocol illustrated in FIG. 5A. Data are expressed as relative expression to the mean value of vehicle-treated mouse liver (means±SEM, n=3 per group), *p<0.05 (FIG. 5C).
Relative mRNA levels of SREBP-responsive genes were determined by real-time PCR in the livers obtained from the indicated mice Data are means±SEM (fed mice, n=3; others, n=6), *p<0.05 (FIG. 5E).

[3] = biological target: T1, SCAP protein (Mus musculus, UniProt Q6GQT6); test: Short-term in vivo model: Western blot of SCAP protein in the liver; parameters: species or system mice; conditions: FIG. 5F
T1 construct: from tissue; host or cells: mouse liver
T1 sequence (Q6GQT6 1-1276): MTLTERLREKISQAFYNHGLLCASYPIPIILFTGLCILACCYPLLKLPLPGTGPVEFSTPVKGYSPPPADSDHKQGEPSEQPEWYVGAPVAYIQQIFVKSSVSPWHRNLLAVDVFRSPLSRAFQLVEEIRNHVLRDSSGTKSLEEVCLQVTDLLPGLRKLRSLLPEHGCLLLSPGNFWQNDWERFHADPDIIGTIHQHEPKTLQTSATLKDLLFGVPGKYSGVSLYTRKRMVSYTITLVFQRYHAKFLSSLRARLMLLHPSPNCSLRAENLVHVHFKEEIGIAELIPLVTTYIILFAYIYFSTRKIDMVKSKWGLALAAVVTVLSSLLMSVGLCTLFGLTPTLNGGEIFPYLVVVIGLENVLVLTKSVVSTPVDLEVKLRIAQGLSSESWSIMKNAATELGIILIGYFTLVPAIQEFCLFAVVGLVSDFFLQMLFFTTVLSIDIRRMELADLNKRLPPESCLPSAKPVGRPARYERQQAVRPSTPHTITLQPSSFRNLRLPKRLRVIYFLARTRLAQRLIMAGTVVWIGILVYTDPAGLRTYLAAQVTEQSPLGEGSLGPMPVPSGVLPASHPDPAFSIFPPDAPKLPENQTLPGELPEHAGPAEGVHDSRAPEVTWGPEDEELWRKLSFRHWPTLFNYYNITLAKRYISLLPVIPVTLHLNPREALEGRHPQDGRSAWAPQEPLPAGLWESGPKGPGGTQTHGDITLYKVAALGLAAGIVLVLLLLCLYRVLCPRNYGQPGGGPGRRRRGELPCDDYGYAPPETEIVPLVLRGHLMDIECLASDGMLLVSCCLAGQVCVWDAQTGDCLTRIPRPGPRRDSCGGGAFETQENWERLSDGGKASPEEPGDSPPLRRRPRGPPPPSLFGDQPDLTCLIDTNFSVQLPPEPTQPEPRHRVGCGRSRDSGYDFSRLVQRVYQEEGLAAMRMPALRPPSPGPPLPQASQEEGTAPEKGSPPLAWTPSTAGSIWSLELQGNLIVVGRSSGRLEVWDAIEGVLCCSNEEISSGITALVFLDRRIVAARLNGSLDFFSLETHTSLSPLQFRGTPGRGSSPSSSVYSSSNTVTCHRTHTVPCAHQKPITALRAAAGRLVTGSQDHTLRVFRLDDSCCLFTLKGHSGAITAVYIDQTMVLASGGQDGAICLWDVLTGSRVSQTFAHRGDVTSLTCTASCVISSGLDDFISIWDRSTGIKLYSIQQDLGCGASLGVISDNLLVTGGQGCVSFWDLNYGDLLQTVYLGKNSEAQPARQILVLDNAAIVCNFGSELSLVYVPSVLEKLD
Description: as §1, with “sacrifice. 10 mg/kg compounds or vehicle control were administered intraperitoneally once every 24 hours during the fasting and refeeding. Western blot analysis of SCAP protein in the livers obtained from the indicated mice were obtained, (FIG. 5F).” for “sacrifice.”

| SMILES | cellular lipogenesis [1] | hepatic expression of SREBP-response genes ACC1 and FASN versus vehicle ([2]; 10 mg/kg intraperitoneally once every 24 hours, fasted 48 h/refed 48 h, n=3, FIG. 5C) | elevated hepatic expression of the three SREBP-responsive genes ACC1, FASN and SCD1 ([2]; 10 mg/kg intraperitoneally, fasting/refeeding, FIG. 5C) | elevated hepatic expression of the four SREBP-responsive genes, repeated examination ([2]; 10 mg/kg, increased number of mice (n=6), FIG. 5E) | increased hepatic expression of SCAP protein after fasting and refeeding [3] |
| --- | --- | --- | --- | --- | --- |
| C=C1CC[C@H](O)C/C1=C/C=C1\CCC[C@]2(C)[C@@H]([C@H](C)CCCC(C)(C)O)CC[C@@H]12 [25(OH)D3, 25-hydroxyvitamin D3, reference compound] | inhibits cellular lipogenesis | – | – | – | – |
| C[C@H](CCC(F)(F)C(C)(C)O)[C@H]1CC[C@H]2/C(=C/Cn3nnnc3-c3ccccc3)CCC[C@]12C [Compound 50, (R)-3,3-Difluoro-2-methyl-6-{(1R,3aS,7aR,E)-7a-methyl-4-[2-(5-phenyl-1H-tetrazol-1-yl)ethylidene]octahydro-1H-inden-1-yl}heptan-2-ol] | – | significantly suppressed | mitigated the elevated expression | significantly mitigated | canceled |
